Experimental data taken from a melting point compilation (Tetko et al.; mined from patent text by program, amines drawn as free bases though some values may be those of a salt).

Structure (SMILES) | melting point [°C]
CC(C)C1(c2ccccc2)OC(C(=O)OCc2cccnc2)=CC1=O (configuration not stated) | 109 to 110
N#Cc1ccc2c(c1)OC(c1ccccc1)(c1ccccc1)O2 | 106 to 107
CCc1cccc(CC(=O)O)c1OCCCc1cn(-c2ccc(C(F)(F)F)cn2)nc1C(CC)CC | 130 to 131
CC(=O)Nc1ccc(-c2ccc3c(c2)CC(C(=O)O)O3)cc1 (configuration not stated) | 274 to 276
CCc1cc(Cl)cc(S(N)(=O)=O)c1N | 134 to 135
O=c1[nH]c2ccccc2c(=O)n1CCOCCO | 149 to 151
O=CC(=Cc1cccc(OCc2ccccc2)c1)C(C=O)=Cc1cccc(OCc2ccccc2)c1 | 126 to 127
CC1(C)COCC(C)(C)N1N=O | 47
O=C(Cc1ccc(C(=O)O)cc1)Nc1cccc(/C=C/c2nc(C3CCC3)cs2)c1 | 262 to 263
Nc1cccc2c1C(Cc1ccnc(F)c1)(Cc1ccnc(F)c1)c1ccccc1-2 | 182 to 184
CC(/C=C/c1sccc1-c1cc2c(cc1C)C(C)(C)CCC2(C)C)=C\C(=O)O | 208 to 209
O=C1NC(=O)C2(CCNCC2)N1Cc1ccccc1 | 195 to 196
CN(C)S(=O)(=O)c1ccc(Oc2ccc(S(=O)(=O)c3ccccc3)cc2)cc1 | 99 to 100
CCCCNC(=O)NC1Cc2ccc(C3=NNC(=O)CC3)cc2C1 (configuration not stated) | 206 to 207
Cc1ccc(-c2nc(COc3ccc(CCCn4ccnc4)cc3)co2)o1 | 109 to 110
Cc1ccc2c(c1)N=C(NCc1cccnc1)c1ccccc1N2 | 186 to 187
CC(=O)Oc1ccccc1C(=O)N1CC(O)C[C@H]1C(=O)O (some centres not stated) | 175
CC(C)OC(N)=C(C#N)C(=N)S | 170
NC(=O)c1ccccc1NC(=O)c1cccnc1 | 220 to 222
C=C1C[C@@H]2C(=O)NC(=O)[C@@H]2C1 | 135 to 137
O=C(NC1CCOCC1)c1cccc(-c2cccc3cc(Cc4cc(F)cc(Cl)c4)sc23)c1 | 127 to 128
Cc1cn(COCOC(=O)c2ccccc2)c(=O)[nH]c1=O | 141 to 143

Structure (SMILES) | melting point [°C]
CC(C)[C@H](NC(=O)OCc1csc(N2CCOCC2)n1)C(=O)N[C@@H](Cc1ccccc1)[C@@H](O)C[C@H](Cc1ccccc1)NC(=O)OCc1cncs1 | 146 to 148
COc1ccccc1N1CCN(CCc2ccc3c(c2)oc(=O)n3C)CC1 | 137 to 138
CCOC(=O)NN(C)c1ccc(-c2ccc(F)cc2)nn1 | 160 to 161
CC(=O)OC1CSC(Oc2ccc(-c3ccncc3)nc2F)C(OC(C)=O)C1OC(C)=O (configuration not stated) | 164
CC(C)NCC(O)C(Oc1ccccc1)c1ccccc1 (configuration not stated) | 95 to 96
Clc1ccc(-c2nc(Cl)c3c(n2)CCCC3)cc1 | 121
O[C@@H]1CN(C[C@H](O)c2ccccc2)CC[C@H]1CCOC(c1ccccc1)c1ccccc1 | 84 to 86
O=C(O)Cc1c(C(=O)c2ccc(Cl)cn2)[nH]c2cc(Cl)ccc12 | 242 to 244
CCOC(=O)/C=C/c1c[nH]c(-c2cccs2)c1 | 104 to 105
NC(=O)c1ccc(N2CCN(CCC3CCc4ccccc43)CC2)cc1 (configuration not stated) | 204 to 205
N#Cc1cc(F)c(N(CCO)CCO)c(F)c1 | 63 to 65
c1ccc(Cn2cncc2-c2cnc(-c3ccccc3)nc2)cc1 | 140
N#CC(=NOCF)C(=N)NCl | 97 to 98
Cn1c(=O)cc(CCc2ccc(Cl)s2)c2cc(C(N)(c3ccc(Cl)cc3)c3cccnc3)ccc21 (configuration not stated) | 100
Cn1cc(-c2ccccc2)c(=O)c(-c2ccc(Cl)c(C(F)(F)F)c2)c1 | 154 to 155
O=C1Nc2cccc(Br)c2C(=O)N2CC[C@@H]12 | 182 to 183
O=C(O)COc1nc2ccccc2s1 | 168 to 170
Cc1c(C(=O)O)cc(Cl)c2c1C(=O)CCS2 | 190 to 192
CCS(=O)c1cn(C)cc(-c2cccc(C(F)(F)F)c2)c1=O (configuration not stated) | 146 to 148
CCOC(=O)CC(=Nc1cc([N+](=O)[O-])ccc1Cl)OC | 60 to 62
CCC1(NC(=O)C(Br)CCl)COCOC1 (configuration not stated) | 95 to 109
CC(=O)NCCc1ccc(NC(=O)C=C2CC(C(=O)O)Nc3cc(Cl)cc(Cl)c32)cc1 (racemic) | 254 to 256

Structure (SMILES) | melting point [°C]
O=C1c2cccc(NCc3ccccc3)c2C(=O)c2cccc(NCc3ccccc3)c21 | 218 to 220
O=S(=O)(/C=C/c1ccsc1)CS(=O)(=O)/C=C/c1ccsc1 | 150 to 152
N#Cc1c(Cc2ccccc2)n[nH]c1N | 183 to 185
CC(=O)c1c(-c2cccs2)[nH]c(-c2ccncc2)c1C | 231 to 232
O=C(O)CNC1CCc2ccccc21 (configuration not stated) | 184 to 186
NC(=O)c1coc2c1C(=O)CC(c1ccccc1)C2 (configuration not stated) | 252 to 253
C=C(C)COc1cc(Cl)ccc1[N+](=O)[O-] | 47 to 49
O=S1(=O)C=CC=CC=N1 | 144 to 146
CC1(C)CC(=O)c2cc(O)ccc2S1 | 135 to 142
O=C1CCNCCNC(=O)CCNCCN1 | 198 to 199
CC1CCCC(C)N1CCCC(O)(c1ccccc1)c1ccccc1 (configuration not stated) | 90 to 91
CCOC(=O)C(CC(C)C)(C(=O)OCC)[C@H](NC(C)=O)[PH](=O)O | 105 to 106
ClCN1C=C(Cl)C(Cl)=CN1 | 69 to 70
Cc1ccc(S(=O)(=O)N2CCN(S(=O)(=O)c3ccc(C)cc3)CC3CCC(CN(S(=O)(=O)c4ccc(C)cc4)CC2)O3)cc1 | 175 to 178
CC(C)COc1ccc(C(=O)O)cc1[N+](=O)[O-] | 184 to 186
Sc1ccc(-n2cnnn2)cc1 | 120 to 122
O=C(NCCc1ccccn1)c1ccc(S(=O)(=O)Nc2cccc3c(Cl)c[nH]c23)cc1 | 220 to 222
O=C(NCCSC(c1ccccc1)(c1ccccc1)c1ccccc1)c1cc2cccc(OCc3ccccc3)c2[nH]1 | 156 to 157
COC(=O)Cc1ccc2occ(-c3ccc(Br)cc3)c2c1 | 84 to 86
CCCCCCCCCCCCCCCCC(Br)CO (configuration not stated) | 39 to 39.5
CCC(=O)N(CC)c1cccc(-c2ccnc3c(C#N)cnn23)c1 | 161 to 162

Now from value to compound:

melting point [°C] | Structure (SMILES)
104 to 106 | CC(O)(CO)c1cccc(OCc2ccc3ccccc3c2)c1 (single isomer, unassigned; (-))
223 to 226 | CON(C)Cc1nc2c(N)nc3ccccc3c2n1CC1CCOCC1
105 to 113 | CC(C)OC(=O)Cn1c(=O)n(C)c(=O)n(-c2cc(N=c3sc(=S)n4n3CCC=C4)c(F)cc2Cl)c1=O
157 to 159 | COc1cc2cc(CO)nc(-c3ccnc(NN)c3)c2cc1OC
116 | COc1ccc(C(=O)c2ccc([N+](=O)[O-])c(CO)c2)cc1
136 | CC(C)COc1ccc2sc(-c3ccccn3)nc(=O)c2c1
234 to 235 | COc1cc2ncnc(Nc3ccc(OCc4ccccn4)c(C)c3)c2cc1O
112 to 114 | Nc1nc(COCc2ccccc2)nc2nccnc12
108 | COc1ccc(-c2nccn2N=Cc2ccc(N(C)C)cc2)cc1
102 to 104 | COc1cccc(Oc2ccc3nc(C(C)=O)c(O)cc3c2)c1
262 to 271 | COc1cccc2c1CN(c1c(F)cc3c(=O)c(C(=O)O)cn(-c4ccc(F)cc4F)c3c1F)C2
76 to 77 | CCOP(=O)(CCc1cc(OCc2ccc(OCc3nc(-c4ccco4)oc3C)c(OC)c2)nn1-c1ccccc1)OCC
254 to 257 | CC(C)(O)Cn1cnc2c(N)nc3cc(OCc4ccccc4)ccc3c21
60 to 65 | CC(C)CCc1c(-c2ccc(S(C)(=O)=O)cc2)cnn(-c2cccc(Cl)c2)c1=O
138 to 139 | COc1ccc(S(=O)(=O)c2c(C(C)C)nn3ccccc23)cc1
237 to 239 | O=S(=O)(CC(F)(F)F)NC(c1ccc(Cl)c2nc3n(c12)CCCN3c1c(Cl)cc(Cl)cc1Cl)C(F)(F)F (configuration not stated)
42 to 44 | CCOC(=O)c1cnoc1-c1ccc(C)cc1
114 to 117 | COc1ncnc(-c2cc([N+](=O)[O-])c(F)cc2F)c1C
240 to 242 | COc1cc2c3c(nc4ccccc4c3c1)-c1ccc(Cl)cc1N2

melting point [°C] | Structure (SMILES)
89 to 93 | FC(F)(F)c1ccc(-c2cc(C3CC3)cc(Cl)n2)cc1
165 to 166 | COC(=O)c1cc(-c2nc(COc3ccc(COc4nn(-c5ccccc5)cc4C=O)cc3OC)c(C)o2)ccc1OC
225 to 227 | Cc1nc(-n2ccc(O)cc2=O)sc1C(=O)NCCc1ccc(F)cc1
160 | CCOc1ccc(C2CC(C(C)(C)C)=NN2c2ccc(C(=O)O)cc2)cc1 (configuration not stated)
270 | Cc1ccc2c(c1)c1cc(-c3ccc(Cl)cc3Cl)c(=O)n(C)c1n2CC#N
267 to 268 | O=c1c2c(c3cccnc3n1-c1ccccc1)OC(CO)C2 (configuration not stated)
198 to 204 | COc1cc(OC)cc(N2Cc3cnc(SC)nc3N=C2N)c1
178 to 179 | CC(C)(C)c1cc(-c2nc(Cl)nc(Cl)n2)cc(C(C)(C)C)c1O
73 to 74 | CCCCC(CC)n1nnc2c(Nc3ccc(C(C)C)cc3Br)nc(C)cc21 (configuration not stated)
156 to 160 | COC(=O)N1Cc2c(-c3ccc(F)cc3)ncn2-c2ccccc21
228 to 230 | Cc1ccc(NC(=O)N(C)Cc2cccc3c2CN(C2CCC(=O)NC2=O)C3=O)cc1C (configuration not stated)
112 to 114 | Cc1ccc(-c2nc(SCc3ccccn3)n[nH]2)c(C)c1
231 to 232 | CC1(C)C(=O)Nc2ccc(-c3cc(F)cc(C#N)c3)cc21
152 to 154 | Cc1cccc(COc2cccc(OCc3coc(-c4cccc(F)c4)n3)c2)c1C(=O)O
86 to 88 | CCOC(=O)c1cc(Cl)c(Cl)c(-c2cc(C)no2)c1C
142 to 144 | COC(=O)[C@@](C#N)(CCN(C)C)C(c1ccccc1OC)c1cccc2ccccc12 (single isomer, unassigned)
132 | CCc1noc(-c2cn(-c3cccc(OC4CCCC4)c3)cn2)n1
176 | COc1ccc2c(cccc2[C@H]2CO[C@H](CCCNC(=O)OCC(=O)NC3CC3)OC2)c1
